Six compounds from ChEMBL document CHEMBL4024782, “Structure-Guided Synthesis and Mechanistic Studies Reveal Sweetspots on Naphthyl Salicyl Hydrazone Scaffold as Non-Nucleosidic Competitive, Reversible Inhibitors of Human Ribonucleotide Reductase” (J Med Chem, 2018) can be followed below.

Activity calls are given as the source filed them. No cut-off for these calls is given here.

In assay [1] the target is T1, Ribonucleoside-diphosphate reductase large subunit (Homo sapiens, UniProt P23921).
T1 sequence (P23921 whole entry): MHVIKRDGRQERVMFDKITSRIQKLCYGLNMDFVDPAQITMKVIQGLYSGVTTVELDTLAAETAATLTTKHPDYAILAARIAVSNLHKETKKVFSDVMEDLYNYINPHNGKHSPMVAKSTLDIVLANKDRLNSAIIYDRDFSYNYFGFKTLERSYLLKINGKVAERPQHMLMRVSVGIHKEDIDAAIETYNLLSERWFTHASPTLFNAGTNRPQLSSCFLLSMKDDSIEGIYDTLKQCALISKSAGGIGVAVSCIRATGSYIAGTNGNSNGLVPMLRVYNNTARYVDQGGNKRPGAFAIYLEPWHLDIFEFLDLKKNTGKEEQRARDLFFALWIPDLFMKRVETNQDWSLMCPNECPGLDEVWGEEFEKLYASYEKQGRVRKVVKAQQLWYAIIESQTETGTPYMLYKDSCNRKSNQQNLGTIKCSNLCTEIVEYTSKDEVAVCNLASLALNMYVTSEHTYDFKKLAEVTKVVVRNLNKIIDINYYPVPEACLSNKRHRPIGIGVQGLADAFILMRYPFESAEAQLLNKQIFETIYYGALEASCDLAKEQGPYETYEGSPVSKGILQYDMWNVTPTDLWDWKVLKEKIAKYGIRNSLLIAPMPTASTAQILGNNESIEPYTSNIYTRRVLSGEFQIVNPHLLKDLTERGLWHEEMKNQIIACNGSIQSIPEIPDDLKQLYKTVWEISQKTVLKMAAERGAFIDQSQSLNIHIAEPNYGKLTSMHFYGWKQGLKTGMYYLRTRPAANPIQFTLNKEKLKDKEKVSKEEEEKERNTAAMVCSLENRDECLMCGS
Nature of the assay: Inhibition of human RRM1 expressed in Escherichia coli BL21-codon plus(DE3)-RIL using [14C]-ADP as substrate after 3 mins by liquid scintillation counting method.

Assay [2] has as its system MDA-MB-231. Nature of the assay: cells. As to conditions: Homo sapiens, MDA-MB-231, 72 h.
Assay [3] concerns the target T2, Ribonucleoside-diphosphate reductase subunit M2 (Homo sapiens, UniProt P31350).
T2 sequence (P31350 whole entry): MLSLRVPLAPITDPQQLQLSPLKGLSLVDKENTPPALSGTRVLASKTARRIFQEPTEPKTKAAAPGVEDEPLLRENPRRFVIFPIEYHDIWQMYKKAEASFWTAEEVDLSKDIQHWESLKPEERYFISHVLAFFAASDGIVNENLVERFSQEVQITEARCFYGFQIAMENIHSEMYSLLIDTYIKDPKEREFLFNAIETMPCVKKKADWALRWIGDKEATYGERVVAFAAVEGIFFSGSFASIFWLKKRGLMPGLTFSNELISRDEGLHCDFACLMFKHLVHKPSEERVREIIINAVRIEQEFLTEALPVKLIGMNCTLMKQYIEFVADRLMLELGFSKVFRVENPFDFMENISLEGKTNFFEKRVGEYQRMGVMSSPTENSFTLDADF
The assay can be described thus: Inhibition of human RRM2 expressed in Escherichia coli BL21-codon plus(DE3) using [14C]-ADP as substrate after 3 mins by liquid scintillation counting method.

Assay [4] has as its system MDA-MB-231. The assay can be described thus: cells. As to conditions: Homo sapiens, MDA-MB-231, 120 h.
Assay [5] deals with MDA-MB-231. The assay can be described thus: cells. As to conditions: Homo sapiens, MDA-MB-231, 120 h. This is another data set of the same source.
A short description of assay [6]: Metal chelating activity in pH 7 ammonium acetate buffer assessed as Fe2+-compound complex formation at compound to metal ratio of 1:4 to 1:50 under anaerobic condition by UV spectroscopic method. The format is functional.
Assay [7] has as its system MDA-MB-231. The assay can be described thus: cells. As to conditions: Homo sapiens, MDA-MB-231, 120 h. This is another data set of the same source.
Assay [8] in a line: Metal chelating activity in pH 7 ammonium acetate buffer assessed as Fe3+-compound complex formation at compound to metal ratio of 1:1 to 1:50 under anaerobic condition by UV spectroscopic method. In kind it is functional.
The nature of assay [9]: Metal chelating activity in pH 7 ammonium acetate buffer assessed as Mg2+-compound complex formation at compound to metal ratio of 1:1 to 1:10 under anaerobic condition by UV spectroscopic method. The format is functional.
For assay [10], the system named is MDA-MB-231. The assay can be described thus: cells. Conditions: Homo sapiens, MDA-MB-231, 120 h. This is another data set of the same source.

On to `O=S(=O)(Cc1ccccc1)N/N=C/c1c(O)ccc2ccccc12`, for which, in [1], the IC50 (usually the concentration at which inhibition is half-maximal) was 131000 nM.
In turn, `Nc1ccn([C@@H]2O[C@H](CO)[C@@H](O)C2(F)F)c(=O)n1` [GEMCITABINE] displayed an IC50 in the assay on MDA-MB-231 [2] of 30 to 100 nM.
In the case of `NC(=S)N/N=C/c1ncccc1N` [TRIAPINE], in assay [3], the IC50 was 185 nM.
`O=C(N/N=C/c1c(O)ccc2ccccc12)c1ccccc1O`: the IC50 in the assay on MDA-MB-231 [4] was 1940 nM; in the assay on MDA-MB-231 [5], 1430 nM; in the assay on MDA-MB-231 [7], 347 nM; in assay [3], 123000 nM; in the assay on MDA-MB-231 [10], 1490 nM. Further, the result in assay [6] was Active. For the same compound, the outcome in [8] and in assay [9] was inactive.
`O=C(N/N=C/c1c(O)ccc2ccccc12)OCc1ccccc1`: the IC50 in [1] was determined as 120000 nM.
Same read-out and setting: then `COc1cc(/C=N/N=C/c2c(O)ccc3ccccc23)ccc1O`, with 687000 nM.
